Measurements as given in ChEMBL document CHEMBL1125472, “5-lipoxygenase: properties, pharmacology, and the quinolinyl(bridged)aryl class of inhibitors” (J Med Chem, 1992).
Blank lines part the entries; values can stand above or below the compound they belong to.

How the values were obtained:
[1] = target: Cyclooxygenase (Homo sapiens, UniProt P35354+P23219); test: The compound was tested for inhibitory activity against Prostaglandin G/H synthase in human polymorphonuclear leukocytes[PMNS]; type: cell-based
[2] = target: T1, Cysteinyl leukotriene receptor 1 (Cavia porcellus, UniProt Q2NNR5); test: The compound was tested for binding affinity against Cysteinyl leukotriene D4 receptor in a soluble guinea pig LTD4 receptor preparation
T1 sequence (Q2NNR5 whole entry): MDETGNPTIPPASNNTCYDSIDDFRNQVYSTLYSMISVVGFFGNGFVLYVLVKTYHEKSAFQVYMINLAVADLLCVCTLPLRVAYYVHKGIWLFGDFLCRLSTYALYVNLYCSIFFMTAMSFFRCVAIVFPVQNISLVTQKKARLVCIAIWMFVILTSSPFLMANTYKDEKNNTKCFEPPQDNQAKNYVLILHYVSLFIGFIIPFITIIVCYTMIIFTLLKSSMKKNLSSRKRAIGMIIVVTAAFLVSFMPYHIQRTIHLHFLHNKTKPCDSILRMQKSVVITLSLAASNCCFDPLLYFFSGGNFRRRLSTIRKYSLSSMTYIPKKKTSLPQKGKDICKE

[3] = species: Cavia porcellus; test: The compound was tested for blocking of LTD4-induced contractions of guinea pig trachea; type: functional; settings: read-out: pA2 (converted)
[4] = The compound was tested for inhibitory activity against Leukotriene B4 receptor in mouse mastocytoma
[5] = target: T2, Polyunsaturated fatty acid 5-lipoxygenase (Rattus norvegicus) (UniProt P12527); test: The compound was tested for inhibition against 5-lipoxygenase in rat polymorphonuclear leukocytes[PMNS] at 10 uM concentration; type: cell-based
T2 sequence (whole entry): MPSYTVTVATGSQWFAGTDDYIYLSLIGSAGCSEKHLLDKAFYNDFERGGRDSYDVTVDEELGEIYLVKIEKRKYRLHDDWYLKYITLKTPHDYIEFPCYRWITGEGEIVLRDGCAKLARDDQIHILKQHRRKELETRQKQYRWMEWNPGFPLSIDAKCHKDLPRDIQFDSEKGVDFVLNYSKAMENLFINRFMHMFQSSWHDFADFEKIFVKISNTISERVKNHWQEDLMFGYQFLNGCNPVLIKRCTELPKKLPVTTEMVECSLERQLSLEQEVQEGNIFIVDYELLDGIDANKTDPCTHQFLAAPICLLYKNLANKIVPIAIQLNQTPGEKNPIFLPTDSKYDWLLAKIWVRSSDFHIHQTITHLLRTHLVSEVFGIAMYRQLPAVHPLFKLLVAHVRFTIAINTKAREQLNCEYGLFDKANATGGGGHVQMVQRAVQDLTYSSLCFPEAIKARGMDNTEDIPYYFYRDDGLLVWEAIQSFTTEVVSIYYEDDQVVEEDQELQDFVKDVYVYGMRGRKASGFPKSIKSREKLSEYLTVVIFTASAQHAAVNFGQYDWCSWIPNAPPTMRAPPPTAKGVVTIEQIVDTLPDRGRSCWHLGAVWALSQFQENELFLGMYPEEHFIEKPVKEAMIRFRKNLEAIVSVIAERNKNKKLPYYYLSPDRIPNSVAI

[6] = species: Cavia porcellus; test: The compound was tested for inhibition of LTD4-induced bronchoconstriction in guinea pig; type: functional
[7] = target: T3, Cyclooxygenase (Rattus norvegicus, UniProt P35355+Q63921); test: The compound was tested for inhibitory activity against Prostaglandin G/H synthase in rat polymorphonuclear leukocytes[PMNS]; type: cell-based
T3 sequence (P35355 whole entry): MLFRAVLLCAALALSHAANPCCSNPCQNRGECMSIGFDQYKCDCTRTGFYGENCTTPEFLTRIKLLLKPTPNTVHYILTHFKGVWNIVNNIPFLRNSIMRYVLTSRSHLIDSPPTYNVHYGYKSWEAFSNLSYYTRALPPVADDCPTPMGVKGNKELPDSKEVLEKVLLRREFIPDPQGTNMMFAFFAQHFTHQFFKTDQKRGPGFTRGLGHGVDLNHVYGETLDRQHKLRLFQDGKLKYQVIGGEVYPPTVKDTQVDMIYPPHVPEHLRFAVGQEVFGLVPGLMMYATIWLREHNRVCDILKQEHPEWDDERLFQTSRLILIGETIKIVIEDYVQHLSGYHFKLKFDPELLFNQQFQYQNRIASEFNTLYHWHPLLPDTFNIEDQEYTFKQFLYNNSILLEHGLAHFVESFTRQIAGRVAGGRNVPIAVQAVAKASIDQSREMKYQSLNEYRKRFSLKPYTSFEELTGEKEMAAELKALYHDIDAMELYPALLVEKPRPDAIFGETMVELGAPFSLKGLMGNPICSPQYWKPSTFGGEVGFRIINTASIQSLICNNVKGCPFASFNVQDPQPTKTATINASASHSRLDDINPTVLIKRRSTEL
T3 sequence (Q63921 whole entry): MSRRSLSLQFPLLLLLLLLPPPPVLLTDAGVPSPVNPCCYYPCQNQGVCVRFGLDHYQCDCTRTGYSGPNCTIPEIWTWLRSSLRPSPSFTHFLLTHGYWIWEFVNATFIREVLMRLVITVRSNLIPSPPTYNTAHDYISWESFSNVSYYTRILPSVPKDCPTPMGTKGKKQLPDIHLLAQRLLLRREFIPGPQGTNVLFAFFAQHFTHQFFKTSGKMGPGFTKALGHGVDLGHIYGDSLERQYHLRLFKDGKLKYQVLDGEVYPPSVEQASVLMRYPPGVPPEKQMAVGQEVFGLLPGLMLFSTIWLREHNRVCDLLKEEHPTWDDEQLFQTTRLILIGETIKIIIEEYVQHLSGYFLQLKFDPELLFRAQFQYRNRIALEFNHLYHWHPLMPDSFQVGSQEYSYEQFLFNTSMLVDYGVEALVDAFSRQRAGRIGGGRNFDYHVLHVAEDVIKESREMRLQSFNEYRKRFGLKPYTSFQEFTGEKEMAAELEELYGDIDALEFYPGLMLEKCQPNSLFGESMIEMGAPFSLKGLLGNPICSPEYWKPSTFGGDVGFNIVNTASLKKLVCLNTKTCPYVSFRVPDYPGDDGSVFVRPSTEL

[8] = target: T4, Polyunsaturated fatty acid 5-lipoxygenase (Rattus norvegicus, UniProt P12527); test: The compound was tested for inhibitory activity against 5-lipoxygenase using rat polymorphonuclear leukocytes[PMNS]
T4 sequence (P12527 whole entry): T2 sequence (whole entry)

[9] = target: T4, Polyunsaturated fatty acid 5-lipoxygenase; test: The compound was tested for inhibitory activity against 5-lipoxygenase in rat polymorphonuclear leukocytes[PMNS]; type: cell-based
[10] = target: T2, Polyunsaturated fatty acid 5-lipoxygenase (Rattus norvegicus); test: The compound was tested for inhibition of 5-lipoxygenase translocation in SAR in rat RBL-2H3 cells; type: functional, cell-based
[11] = species: Homo sapiens; test: The compound was tested for inhibitory activity against Leukotriene synthesis in human monocytes; type: functional
[12] = target: T5, Leukotriene C4 synthase (Rattus norvegicus) (UniProt Q925U2); test: The compound was tested for inhibition LTC4 synthase from whole cells in rat
T5 sequence (whole entry): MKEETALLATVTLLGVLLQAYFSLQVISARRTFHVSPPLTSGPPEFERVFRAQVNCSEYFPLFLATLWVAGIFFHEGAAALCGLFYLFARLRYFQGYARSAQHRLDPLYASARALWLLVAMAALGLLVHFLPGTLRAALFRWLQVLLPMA

[13] = species: Homo sapiens; test: The compound was tested for inhibitory activity against 5-Lipoxygenase in human polymorphonuclear leukocytes[PMNS]; type: functional
[14] = target: T6, Polyunsaturated fatty acid 5-lipoxygenase (Homo sapiens, UniProt P09917); test: The compound was tested for inhibitory activity against LT synthesis in human polymorphonuclear leukocytes[PMNS]; type: cell-based
T6 sequence (P09917 whole entry): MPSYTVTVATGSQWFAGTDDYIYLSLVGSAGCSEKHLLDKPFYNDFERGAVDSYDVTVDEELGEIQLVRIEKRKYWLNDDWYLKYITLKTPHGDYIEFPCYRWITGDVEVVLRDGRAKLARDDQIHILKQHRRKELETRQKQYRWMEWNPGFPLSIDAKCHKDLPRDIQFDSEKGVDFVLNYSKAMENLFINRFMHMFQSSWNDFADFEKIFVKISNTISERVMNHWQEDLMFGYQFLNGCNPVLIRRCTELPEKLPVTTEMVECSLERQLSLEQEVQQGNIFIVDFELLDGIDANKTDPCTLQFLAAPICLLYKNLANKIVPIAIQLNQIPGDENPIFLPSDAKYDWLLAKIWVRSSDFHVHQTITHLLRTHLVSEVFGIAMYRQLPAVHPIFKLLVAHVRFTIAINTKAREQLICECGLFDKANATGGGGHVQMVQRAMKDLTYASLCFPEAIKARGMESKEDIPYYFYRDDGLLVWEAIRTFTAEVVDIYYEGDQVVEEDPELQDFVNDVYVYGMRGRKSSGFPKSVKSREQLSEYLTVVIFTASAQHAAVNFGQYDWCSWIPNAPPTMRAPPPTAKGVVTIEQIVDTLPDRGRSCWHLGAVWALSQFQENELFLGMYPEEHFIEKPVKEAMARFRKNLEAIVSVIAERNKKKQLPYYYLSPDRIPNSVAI

[15] = target: T4, Polyunsaturated fatty acid 5-lipoxygenase; test: The compound was tested for inhibitory activity against 5-lipoxygenase translocation inhibitor in rat RBL-2H3 cells; type: functional, cell-based
[16] = target: T2, Polyunsaturated fatty acid 5-lipoxygenase (Rattus norvegicus); test: The compound was tested for inhibition of isolated 5-lipoxygenase
[17] = target: T2, Polyunsaturated fatty acid 5-lipoxygenase (Rattus norvegicus); test: The compound was tested for inhibition against 5-Lipoxygenase in rat polymorphonuclear leukocytes at 10 uM concentration; type: cell-based
[18] = target: Cyclooxygenase (Rattus norvegicus) (UniProt P35355+Q63921); test: The compound was tested for inhibition against Prostaglandin G/H synthase in rat polymorphonuclear leukocytes[PMNS] at 10 uM concentration; type: cell-based
[19] = species: Cavia porcellus; test: The effective dose for inhibition of LTD4-induced contractions of guinea pig trachea; type: functional

- Inhibition [5]: 96%
SMILES: O=C(O)CCc1nc(-c2ccc(OCc3ccc4ccccc4n3)cc2)c(-c2ccccc2)o1

- IC50 [7]: 5820 nM
- IC50 [8]: 53000 nM
SMILES: Oc1ccccc1OCc1ccc2ccccc2n1
- Inhibition [6]: 28%

- Inhibition [5]: 100%
SMILES: O=C(O)Cc1ccc(-c2ccc(OCc3ccc4ccccc4n3)cc2)c(F)c1

- IC50 [9]: 2000 nM
SMILES: CCN(CC)C(=O)N(C)C[C@H](O)c1cccc(OCc2ccc3ccccc3n2)c1

- Inhibition [17]: 92%
SMILES: CC(C(=O)O)c1ccc2c3cc(OCc4ccc5ccccc5n4)ccc3n(Cc3ccc4ccccc4n3)c2c1 (stereo not given)

- Inhibition [18]: 47%
- Inhibition [5]: 91%
SMILES: CCc1cc(OCc2ccc3ccccc3n2)cc2c3c([nH]c12)C(CC)(CC(=O)O)OCC3 (stereo not given)

- IC50 [7]: 13400 nM
- IC50 [9]: 6200 nM
SMILES: c1cc(Cc2nnn[nH]2)cc(OCc2ccc3ccccc3n2)c1
- ED50 [19]: 0.4 mg/kg

The remaining lines, values behind:

SMILES: CC(C)(C)c1cc(-c2cn3ncc(=O)nc3s2)cc(C(C)(C)C)c1O
- IC50 [1]: 25000 nM

SMILES: CCCc1c(OCCCCc2nnn[nH]2)ccc(C(C)=O)c1O [TOMELUKAST]
- Ki [2]: 60 nM
- Kb [3]: 209 nM

SMILES: CCOC(=O)Oc1ccc(/C=C/C=C/C(=O)NCCN2CCC(OC(c3ccccc3)c3ccccc3)CC2)cc1OC [LINETASTINE]
- IC50 [4]: 320 nM

SMILES: CC(C)c1ccc2c(c1)c(SC(C)(C)C)c(CC(C)(C)C(=O)O)n2Cc1ccc(Cl)cc1
- Inhibition [10]: 35 nM
- IC50 [11]: 50 nM
- Inhibition [12]: 3 nM
- IC50 [13]: 2.5 nM
- IC50 [14]: 60 nM
- IC50 [15]: 5 nM
- Inhibition [16]: > 20 µM

SMILES: CCCCC[C@H](O)c1cccc(OCc2cccc(CC(=O)O)c2)c1
- IC50 [9]: 2500 nM

SMILES: CCCc1c(OCC(O)COc2cccc(NC(=O)C(=O)OCC)c2C#N)ccc(C(C)=O)c1O (stereo not given)
- IC50 [9]: 32000 nM
